pIC50: −log10 of the molar value.
Key:
T47D = assay: Growth inhibition of human T47D cells assessed as cell growth at 10 uM after 48 hrs by sulforhodamine B assay; assay type: functional; settings: read-out: Activity
PC-3 = assay: Growth inhibition of human PC3 cells assessed as cell growth at 10 uM after 48 hrs by sulforhodamine B assay; assay type: functional; settings: PC-3, 48 h, read-out: Activity
CAKI-1 = assay: Growth inhibition of human CAKI-1 cells assessed as cell growth at 10 uM after 48 hrs by sulforhodamine B assay; assay type: functional; settings: CAKI-1, 48 h, read-out: Activity
HT-29 = assay: Growth inhibition of human HT-29 cells after 48 hrs by sulforhodamine B assay; assay type: functional; settings: HT-29, 48 h
KM12 = assay: Growth inhibition of human KM12 cells after 48 hrs by sulforhodamine B assay; assay type: functional, cell-based; settings: KM12, 48 h
COLO 205 = assay: Growth inhibition of human COLO205 cells after 48 hrs by sulforhodamine B assay; assay type: functional; settings: COLO 205, 48 h
NCI-H23 = assay: Growth inhibition of human NCI-H23 cells after 48 hrs by sulforhodamine B assay; assay type: functional; settings: NCI-H23, 48 h
NCI-H226 = assay: Growth inhibition of human NCI-H226 cells after 48 hrs by sulforhodamine B assay; assay type: functional; settings: NCI-H226, 48 h
CCRF-CEM [1] = assay: Growth inhibition of human CCRF-CEM cells after 48 hrs by sulforhodamine B assay; assay type: functional
RXF 393 [2] = assay: Growth inhibition of human RXF393 cells assessed as cell growth at 10 uM after 48 hrs by sulforhodamine B assay; assay type: functional; settings: RXF 393, 48 h, read-out: Activity
786-0 = assay: Growth inhibition of human 786-0 cells assessed as cell growth at 10 uM after 48 hrs by sulforhodamine B assay; assay type: functional; settings: 786-0, 48 h, read-out: Activity
A498 = assay: Growth inhibition of human A498 cells assessed as cell growth at 10 uM after 48 hrs by sulforhodamine B assay; assay type: functional; settings: A498, 48 h, read-out: Activity
OVCAR-5 [3] = assay: Growth inhibition of human OVCAR5 cells assessed as cell growth at 10 uM after 48 hrs by sulforhodamine B assay; assay type: functional; settings: OVCAR-5, 48 h, read-out: Activity
OVCAR-8 = assay: Growth inhibition of human OVCAR8 cells assessed as cell growth at 10 uM after 48 hrs by sulforhodamine B assay; assay type: functional; settings: OVCAR-8, 48 h, read-out: Activity
SK-MEL-5 [4] = assay: Growth inhibition of human SK-MEL-5 cells assessed as cell growth at 10 uM after 48 hrs by sulforhodamine B assay; assay type: functional; settings: SK-MEL-5, 48 h, read-out: Activity
SK-MEL-2 = assay: Growth inhibition of human SK-MEL-2 cells assessed as cell growth at 10 uM after 48 hrs by sulforhodamine B assay; assay type: functional; settings: SK-MEL-2, 48 h, read-out: Activity
Malme-3M = assay: Growth inhibition of human MALME-3M cells assessed as cell growth at 10 uM after 48 hrs by sulforhodamine B assay; assay type: functional; settings: read-out: Activity
LOX IMVI = assay: Growth inhibition of human LOXIMVI cells assessed as cell growth at 10 uM after 48 hrs by sulforhodamine B assay; assay type: functional; settings: read-out: Activity
U-251 = assay: Growth inhibition of human U251 cells assessed as cell growth at 10 uM after 48 hrs by sulforhodamine B assay; assay type: functional; settings: U-251, 48 h, read-out: Activity
HCT-15 = assay: Growth inhibition of human HCT15 cells assessed as cell growth at 10 uM after 48 hrs by sulforhodamine B assay; assay type: functional; settings: HCT-15, 48 h, read-out: Activity
[5] = Growth inhibition of human HCC2998 cells assessed as cell growth at 10 uM after 48 hrs by sulforhodamine B assay; assay type: functional; settings: HCC 2998, 48 h, read-out: Activity
NCI-H322M = assay: Growth inhibition of human NCI-H322M cells assessed as cell growth at 10 uM after 48 hrs by sulforhodamine B assay; assay type: functional; settings: read-out: Activity
BT-549 = assay: Growth inhibition of human BT549 cells after 48 hrs by sulforhodamine B assay; assay type: functional; settings: BT-549, 48 h
MCF7 = assay: Growth inhibition of human MCF7 cells after 48 hrs by sulforhodamine B assay; assay type: functional; settings: MCF7, 48 h
DU-145 = assay: Growth inhibition of human DU145 cells after 48 hrs by sulforhodamine B assay; assay type: functional; settings: DU-145, 48 h
RXF 393 [6] = assay: Growth inhibition of human RXF393 cells after 48 hrs by sulforhodamine B assay; assay type: functional; settings: RXF 393, 48 h
OVCAR-5 [7] = assay: Growth inhibition of human OVCAR5 cells after 48 hrs by sulforhodamine B assay; assay type: functional; settings: OVCAR-5, 48 h
SK-MEL-5 [8] = assay: Growth inhibition of human SK-MEL-5 cells after 48 hrs by sulforhodamine B assay; assay type: functional; settings: SK-MEL-5, 48 h
UACC-257 = assay: Growth inhibition of human UACC257 cells after 48 hrs by sulforhodamine B assay; assay type: functional; settings: UACC-257, 48 h
MDA-MB-435 = assay: Growth inhibition of human MDA-MB-435 cells after 48 hrs by sulforhodamine B assay; assay type: functional, cell-based; settings: MDA-MB-435, 48 h
SF-539 = assay: Growth inhibition of human SF539 cells after 48 hrs by sulforhodamine B assay; assay type: functional; settings: SF-539, 48 h
HOP-62 = assay: Growth inhibition of human HOP62 cells assessed as cell growth at 10 uM after 48 hrs by sulforhodamine B assay; assay type: functional; settings: HOP-62, 48 h, read-out: Activity
A549 = assay: Growth inhibition of human A549/ATCC cells assessed as cell growth at 10 uM after 48 hrs by sulforhodamine B assay; assay type: functional; settings: A549, 48 h, read-out: Activity
RPMI-8226 = assay: Growth inhibition of human RPMI8226 cells assessed as cell growth at 10 uM after 48 hrs by sulforhodamine B assay; assay type: functional; settings: RPMI-8226, 48 h, read-out: Activity
CCRF-CEM [9] = assay: Growth inhibition of human CCRF-CEM cells assessed as cell growth at 10 uM after 48 hrs by sulforhodamine B assay; assay type: functional; settings: read-out: Activity
[10] = read-out: LC50 (the source's name)

Q: Which results are given for `COc1cc(-c2nn(-c3cccc(NC(=O)c4ccc(Cl)c(C(F)(F)F)c4)c3)cc2-c2ccncc2)ccc1Cl`?
A: growth at 10 µM (T47D): 26.2%; growth at 10 µM (PC-3): 18.6%; growth at 10 µM (CAKI-1): 61.1%; GI50 (HT-29): 3.38 µM; TGI (HT-29): > 32.5 µM; CC50 (HT-29; [10]): > 32.5 µM; GI50 (KM12): 2060 nM; TGI (KM12): > 32.5 µM; CC50 (KM12; [10]): > 32.5 µM; GI50 (COLO 205): 6.14 µM; LC50 (concentration killing 50% of cells) (COLO 205): > 32.5 µM; TGI (COLO 205): 23.3 µM; GI50 (NCI-H23): 5.39 µM; LC50 (NCI-H23): > 32.5 µM; TGI (NCI-H23): > 32.5 µM; GI50 (NCI-H226): 5.9 µM; TGI (NCI-H226): > 32.5 µM; CC50 (NCI-H226; [10]): > 32.5 µM; GI50 (CCRF-CEM [1]): 1770 nM; LC50 (CCRF-CEM [1]): > 32.5 µM; TGI (CCRF-CEM [1]): > 32.5 µM; growth at 10 µM (RXF 393 [2]): -0.4%; growth at 10 µM (786-0): 59.5%; growth at 10 µM (A498): 11.8%; growth at 10 µM (OVCAR-5 [3]): 91.3%; growth at 10 µM (OVCAR-8): 38.9%; growth at 10 µM (SK-MEL-5 [4]): 17.5%; growth at 10 µM (SK-MEL-2): 18.9%; growth at 10 µM (Malme-3M): 16.8%; growth at 10 µM (LOX IMVI): 32.2%; growth at 10 µM (U-251): 32.5%; growth at 10 µM (HCT-15): 51.7%; growth at 10 µM [5]: -8.08%; growth at 10 µM (NCI-H322M): 84.9%; GI50 (BT-549): 7.54 µM; LC50 (50% lethal concentration) (BT-549): > 32.5 µM; TGI (BT-549): > 32.5 µM; GI50 (MCF7): 2240 nM; LC50 (MCF7): > 32.5 µM; TGI (MCF7): > 32.5 µM; GI50 (DU-145): 6.39 µM; LC50 (DU-145): > 32.5 µM; TGI (DU-145): > 32.5 µM; GI50 (RXF 393 [6]): 1760 nM; LC50 (concentration killing 50% of cells) (RXF 393 [6]): > 32.5 µM; TGI (RXF 393 [6]): 18.7 µM; GI50 (OVCAR-5 [7]): > 32.5 µM; LC50 (concentration killing 50% of cells) (OVCAR-5 [7]): > 32.5 µM; TGI (OVCAR-5 [7]): > 32.5 µM; GI50 (SK-MEL-5 [8]): 1380 nM; LC50 (concentration killing 50% of cells) (SK-MEL-5 [8]): 31.8 µM; TGI (SK-MEL-5 [8]): 6.87 µM; GI50 (UACC-257): 7.13 µM; TGI (UACC-257): > 32.5 µM; CC50 (UACC-257; [10]): > 32.5 µM; GI50 (MDA-MB-435): 664 nM; pIC50 (MDA-MB-435): 6.18; TGI (MDA-MB-435): 1740 nM; CC50 (MDA-MB-435; [10]): 24.7 µM; GI50 (SF-539): 4.13 µM; LC50 (concentration killing 50% of cells) (SF-539): > 32.5 µM; TGI (SF-539): 20.3 µM; growth at 10 µM (HOP-62): 53%; growth at 10 µM (A549): 23.3%; growth at 10 µM (RPMI-8226): 25.4%; growth at 10 µM (CCRF-CEM [9]): 12.4%
